Measured values as given in patent US20230072392A1, “NASAL SPRAY” (BREATHE BETTER LLC, priority 2021, published 2023).

How the values were obtained:
[1] = tested on: individuals; assay: Long-term nasal use: rebound effect (rebound congestion); type: in vivo, human; settings: oxymetazoline or salts at less than 0.050%, preferably 0.025%
From the text: In an embodiment of the nasal spray composition, the nasal spray composition may include effective amounts of a decongestant or vasoconstrictor, such as oxymetazoline, or pharmaceutical acceptable salts thereof, such as oxymetazoline hydrochloride. In an illustrative embodiment, the effective amount of oxymetazoline or pharmaceutical acceptable salts thereof, is less than 0.050%, between less than 0.050% and 0.010%, and more preferably, 0.025% or about 0.025%. Oxymetazoline, a member of the imidazole group, binds and activates alpha-2 adrenergic receptors. Upon nasal administration, imidazole group compounds constrict the arterioles in the nose, resulting in decreasing congestion. Concentrations of oxymetazoline (0.050%) utilized in the over-the-counter sprays have been proven to return symptoms to a degree stronger than present initially upon discontinuation of the drug. This is called the rebound effect, or rebound congestion (rhinitis medicamentosa, chemical rhinitis, or nasal spray addiction). The rebound effect may occur in as early as 3 days of use, but typically occurs in 3-5 days and sometimes 5-7 days of use. […] As such, the nasal spray according to the present invention can be used for a time period greater than 5-7 days without the risk of suffering from any rebound effect. […]

[2] = tested on: individuals; settings: oxymetazoline 0.050% in over-the-counter sprays, days of use; cited from earlier work

Cc1cc(C(C)(C)C)c(O)c(C)c1CC1=NCCN1 [oxymetazoline]
effect on snoring or sleep apnea and rebound effect [1]: effective at reducing or minimizing snoring or sleep apnea while preventing the rebound effect
rebound effect: earliest onset (may occur in as early as) [2]: 3 days
rebound effect: onset sometimes [2]: 5 to 7 days
rebound effect: typical onset [2]: 3 to 5 days
